Measured values reported in patent US20090054454A1, “BENZOFURANYL- AND BENZOTHIENYL- PIPERAZINYL QUINOLINES AND METHODS OF THEIR USE” (priority 2007, published 2009).
Structures can show the parent of a compound that is named as a salt.

What was measured:
[1] = biological target: Human 5-HT Transporter (Homo sapiens, UniProt P31645); experiment: Inhibition of 3H-5-HT Uptake by Cells Possessing the Human 5-HT Transporter (HC 5HT Transporter), Jar cells; settings: HC-5HTC Transporter Ki (nM), Jar cells treated with staurosporine
Human 5-HT Transporter, sequence (P31645 whole entry): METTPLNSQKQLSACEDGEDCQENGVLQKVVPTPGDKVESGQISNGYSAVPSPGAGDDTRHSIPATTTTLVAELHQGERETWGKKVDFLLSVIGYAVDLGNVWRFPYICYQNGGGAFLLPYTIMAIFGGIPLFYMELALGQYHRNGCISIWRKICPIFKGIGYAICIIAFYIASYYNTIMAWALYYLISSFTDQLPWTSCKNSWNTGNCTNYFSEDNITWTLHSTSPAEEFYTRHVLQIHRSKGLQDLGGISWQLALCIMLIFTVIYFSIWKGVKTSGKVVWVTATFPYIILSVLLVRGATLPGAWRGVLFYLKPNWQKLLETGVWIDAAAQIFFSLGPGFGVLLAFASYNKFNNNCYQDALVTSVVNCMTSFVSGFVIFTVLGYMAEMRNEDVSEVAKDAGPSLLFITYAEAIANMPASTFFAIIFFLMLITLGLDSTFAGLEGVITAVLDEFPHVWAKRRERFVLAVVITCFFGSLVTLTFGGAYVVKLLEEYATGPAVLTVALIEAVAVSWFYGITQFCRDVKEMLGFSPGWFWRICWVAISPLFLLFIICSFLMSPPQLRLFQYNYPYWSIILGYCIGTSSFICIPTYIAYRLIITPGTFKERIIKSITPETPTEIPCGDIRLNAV

With `COc1ccc2c(CCN3CCN(c4cccc5cccnc45)CC3)coc2c1` [Compound 9, 8-{4-[2-(6-methoxy-1-benzofuran-3-yl)ethyl]-1-piperazinyl}-quinoline] the Ki [1] was 71.3 nM.

Work on `Clc1cc(N2CCN(CCc3coc4ccccc34)CC2)c2ncccc2c1` [Compound 2, 8-{4-[2-(1-benzofuran-3-yl)ethyl]-1-piperazinyl}-6-chloroquinoline] yielded a Ki [1] of 1710 nM.

`COc1cccc2c1occ2[C@H]1CC[C@H](N2CCN(c3ccc(F)c4cccnc34)CC2)CC1` [Compound 58, 5-fluoro-8-{4-[4-trans(7-methoxy-1-benzofuran-3-yl)cyclohexyl]-1-piperazinyl}quinoline] showed a Ki [1] of 272 nM.

With `COc1ccc2occ([C@H]3CC[C@H](N4CCN(c5ccc(Cl)c6cccnc56)CC4)CC3)c2c1` [Compound 66, 5-chloro-8-{4-[4-trans(5-methoxy-1-benzofuran-3-yl)cyclohexyl]piperazin-1-yl}quinoline] the Ki [1] was 1200 nM.

Molecule `COc1cccc2c(CCN3CCN(c4cc(Cl)cc5cccnc45)CC3)coc12` (as salt: HCl) [Compound 20, 8-{4-[2-(7-methoxy-1-benzofuran-3-yl)ethyl]-1-piperazinyl}-6-chloro-quinoline] has a melting point of 248 °C.

`COc1cccc2c(C(C)CN3CCN(c4cccc5cccnc45)CC3)coc12` (stereo not drawn) (as salt: HCl) [Compound 31, 8-{4-[2-(7-methoxy-1-benzofuran-3-yl)propyl]-1-piperazinyl}quinoline] gave a melting point of 192 °C.

Work on `Fc1cc(N2CCN([C@H]3CC[C@@H](c4coc5ccccc54)CC3)CC2)c2ncccc2c1` [Compound 55, 8-{4-[4-cis(1-benzofuran-3-yl)cyclohexyl]-1-piperazinyl}-6-fluoroquinoline] yielded a Ki [1] of 472 nM.

Work on `COc1cc(N2CCN(CCc3coc4ccc(OC)cc34)CC2)c2ncccc2c1` [Compound 25, 8-{4-[2-(5-methoxy-1-benzofuran-3-yl)ethyl]-1-piperazinyl}-6-methoxy-quinoline] yielded a Ki [1] of 210 nM.

`COc1cc(N2CCN(CCc3coc4ccc(F)cc34)CC2)c2ncccc2c1` (as salt: HCl) [Compound 16, 8-{4-[2-(5-fluoro-1-benzofuran-3-yl)ethyl]-1-piperazinyl}-6-methoxy-quinoline] showed a melting point of 80 °C.

For `Fc1cc(N2CCN(CCc3coc4cc(Cl)ccc34)CC2)c2ncccc2c1` [Compound 6, 8-{4-[2-(6-chloro-1-benzofuran-3-yl)ethyl]-1-piperazinyl}-6-fluoro-quinoline], the Ki [1] was 1080 nM.

`COc1cccc2c1occ2[C@H]1CC[C@@H](N2CCN(c3ccc(Cl)c4cccnc34)CC2)CC1` [Compound 63, 5-chloro-8-{4-[4-cis(7-methoxy-1-benzofuran-3-yl)cyclohexyl]piperazin-1-yl}quinoline] gave a Ki [1] of 124 nM.

Molecule `COc1ccc2occ(CCN3CCN(c4cc(C)cc5cccnc45)CC3)c2c1` [Compound 23, 8-{4-[2-(5-methoxy-1-benzofuran-3-yl)ethyl]-1-piperazinyl}-6-methyl-quinoline] has a Ki [1] of 182 nM.

For `COc1ccc2occ(CC(C)N3CCN(c4cc(C)cc5cccnc45)CC3)c2c1` (stereo not drawn) [Compound 40, 6-methyl-8-{4-[2-(5-methoxy-1-benzofuran-3-yl)-1-methylethyl)piperazin-1-yl]quinoline], the Ki [1] was 549 nM.

With `COc1cc(N2CCN(CCc3coc4ccccc34)CC2)c2ncccc2c1` [Compound 4, 8-{4-[2-(1-benzofuran-3-yl)ethyl]-1-piperazinyl}-6-methoxyquinoline] the Ki [1] was 612 nM.

`COc1cccc2c(CCN3CCN(c4cccc5cccnc45)CC3)coc12` [Compound 18, 8-{4-[2-(7-methoxy-1-benzofuran-3-yl)ethyl]-1-piperazinyl}-quinoline] gave a Ki [1] of 9.46 nM.

In the case of `Cc1cc(N2CCN(CCc3coc4ccc(Cl)cc34)CC2)c2ncccc2c1` [Compound 14, 8-{4-[2-(5-chloro-1-benzofuran-3-yl)ethyl]-1-piperazinyl}-6-methyl-quinoline], the Ki [1] is reported as 9.82 nM.

In the case of `COc1ccc2occ(CCN3CCN(c4cc(F)cc5cccnc45)CC3)c2c1` [Compound 26, 8-{4-[2-(5-methoxy-1-benzofuran-3-yl)ethyl]-1-piperazinyl}-6-fluoro-quinoline], the Ki [1] is reported as 51 nM.

Work on `Cc1cc(N2CCN(CC(C)c3coc4ccccc34)CC2)c2ncccc2c1` (stereo not drawn) [Compound 30, 8-{4-[2-(1-benzofuran-3-yl)propyl]-1-piperazinyl}-6-methyl-quinoline] yielded a Ki [1] of 347 nM.

In the case of `Clc1ccc2occ(CCN3CCN(c4cccc5cccnc45)CC3)c2c1` [Compound 12, 8-{4-[2-(5-chloro-1-benzofuran-3-yl)ethyl]-1-piperazinyl}-quinoline], the Ki [1] is reported as 42.2 nM.

Molecule `COc1cccc2c(C(C)CN3CCN(c4cc(Cl)cc5cccnc45)CC3)coc12` (stereo not drawn) [Compound 33, 8-{4-[2-(7-methoxy-1-benzofuran-3-yl)propyl]-1-piperazinyl}-6-chloro-quinoline] has a Ki [1] of 183 nM.

Molecule `COc1cc(N2CCN(C(C)Cc3coc4c(OC)cccc34)CC2)c2ncccc2c1` (stereo not drawn) [Compound 36, 6-methoxy-8-{4-[2-(7-methoxy-1-benzofuran-3-yl)-1-methylethyl)piperazin-1-yl]quinoline] has a Ki [1] of 31 nM.

Molecule `COc1cccc2c(CCN3CCN(c4cc(Cl)cc5cccnc45)CC3)coc12` [Compound 20, 8-{4-[2-(7-methoxy-1-benzofuran-3-yl)ethyl]-1-piperazinyl}-6-chloro-quinoline] has a Ki [1] of 47.7 nM.

For `Cc1cc(N2CCN(CCc3coc4ccccc34)CC2)c2ncccc2c1` [Compound 3, 8-{4-[2-(1-benzofuran-3-yl)ethyl]-1-piperazinyl}-6-methylquinoline], the Ki [1] was 75.6 nM.

`COc1cc(N2CCN([C@H]3CC[C@H](c4csc5ccc(F)cc54)CC3)CC2)c2ncccc2c1` [Compound 50, 6-methoxy-8-{4-[4-trans(5-fluoro-1-benzothien-3-yl)cyclohexyl]piperazin-1-yl}quinoline] showed a Ki [1] of 65.3 nM.

`COc1cc(N2CCN([C@H]3CC[C@@H](c4csc5ccc(F)cc54)CC3)CC2)c2ncccc2c1` [Compound 49, 6-methoxy-8-{4-[4-cis(5-fluoro-1-benzothien-3-yl)cyclohexyl]piperazin-1-yl}quinoline] gave a Ki [1] of 659 nM.

`Fc1cc(N2CCN(CCc3coc4ccc(F)cc34)CC2)c2ncccc2c1` [Compound 17, 8-{4-[2-(5-fluoro-1-benzofuran-3-yl)ethyl]-1-piperazinyl}-6-fluoro-quinoline] showed a Ki [1] of 50.9 nM.

Molecule `COc1ccc2c(CCN3CCN(c4cc(C)cc5cccnc45)CC3)coc2c1` [Compound 10, 8-{4-[2-(6-methoxy-1-benzofuran-3-yl)ethyl]-1-piperazinyl}-6-methyl-quinoline] has a Ki [1] of 206 nM.

In the case of `CC(CN1CCN(c2cc(F)cc3cccnc23)CC1)c1coc2ccccc12` (stereo not drawn) [Compound 29, 8-{4-[2-(1-benzofuran-3-yl)propyl]-1-piperazinyl}-6-fluoro-quinoline], the Ki [1] is reported as 115 nM.

For `COc1cccc2c(C(C)CN3CCN(c4cccc5cccnc45)CC3)coc12` (stereo not drawn) [Compound 31, 8-{4-[2-(7-methoxy-1-benzofuran-3-yl)propyl]-1-piperazinyl}quinoline], the Ki [1] was 9.53 nM.

In the case of `Clc1cc(N2CCN(CCc3coc4ccc(Cl)cc34)CC2)c2ncccc2c1` [Compound 13, 8-{4-[2-(5-chloro-1-benzofuran-3-yl)ethyl]-1-piperazinyl}-6-chloro-quinoline], the Ki [1] is reported as 270 nM.

With `COc1cccc2c(C(C)CN3CCN(c4cc(C)cc5cccnc45)CC3)coc12` (stereo not drawn) [Compound 32, 8-{4-[2-(7-methoxy-1-benzofuran-3-yl)propyl]-1-piperazinyl}-6-methyl-quinoline] the Ki [1] was 58.2 nM.

`COc1cccc2c(C(C)CN3CCN(c4cc(C)cc5cccnc45)CC3)coc12` (stereo not drawn) [Compound 34, 8-{4-[2-(7-methoxy-1-benzofuran-3-yl)propyl]-1-piperazinyl}-6-methyl-quinoline] gave a Ki [1] of 881 nM.

`COc1ccc2occ([C@H]3CC[C@@H](N4CCN(c5ccc(Cl)c6cccnc56)CC4)CC3)c2c1` [Compound 65, 5-chloro-8-{4-[4-cis(5-methoxy-1-benzofuran-3-yl)cyclohexyl]piperazin-1-yl}quinoline] gave a Ki [1] of 53 nM.

`Fc1ccc2occ(CCN3CCN(c4cccc5cccnc45)CC3)c2c1` [Compound 15, 8-{4-[2-(5-fluoro-1-benzofuran-3-yl)ethyl]-1-piperazinyl}-quinoline] showed a Ki [1] of 67.2 nM.

Molecule `CC(CN1CCN(c2cccc3cccnc23)CC1)c1coc2ccccc12` (stereo not drawn) [Compound 27, 8-{4-[2-(1-benzofuran-3-yl)propyl]-1-piperazinyl}quinoline] has a Ki [1] of 51.9 nM.

`CC(CN1CCN(c2cc(Cl)cc3cccnc23)CC1)c1coc2ccccc12` (stereo not drawn) [Compound 28, 8-{4-[2-(1-benzofuran-3-yl)propyl]-1-piperazinyl}-6-chloro-quinoline] showed a Ki [1] of 125 nM.

`Cc1cc(N2CCN(CCc3coc4cc(Cl)ccc34)CC2)c2ncccc2c1` [Compound 8, 8-{4-[2-(6-chloro-1-benzofuran-3-yl)ethyl]-1-piperazinyl}-6-methyl-quinoline] showed a Ki [1] of 1780 nM.

With `Clc1ccc2c(CCN3CCN(c4cccc5cccnc45)CC3)coc2c1` [Compound 5, 8-{4-[2-(6-chloro-1-benzofuran-3-yl)ethyl]-1-piperazinyl}-quinoline] the Ki [1] was 1.6 nM.

In the case of `COc1ccc2occ(CC(C)N3CCN(c4cc(Cl)cc5cccnc45)CC3)c2c1` (stereo not drawn) [Compound 39, 6-chloro-8-{4-[2-(5-methoxy-1-benzofuran-3-yl)-1-methylethyl)piperazin-1-yl]quinoline], the Ki [1] is reported as 40.1 nM.

With `COc1cccc2c1occ2[C@H]1CC[C@H](N2CCN(c3ccc(Cl)c4cccnc34)CC2)CC1` [Compound 64, 5-chloro-8-{4-[4-trans(7-methoxy-1-benzofuran-3-yl)cyclohexyl]piperazin-1-yl}quinoline] the Ki [1] was 176 nM.

Molecule `COc1cc(N2CCN(CCc3coc4ccc(F)cc34)CC2)c2ncccc2c1` [Compound 16, 8-{4-[2-(5-fluoro-1-benzofuran-3-yl)ethyl]-1-piperazinyl}-6-methoxy-quinoline] has a Ki [1] of 180 nM.

For `COc1ccc2c(CCN3CCN(c4cc(Cl)cc5cccnc45)CC3)coc2c1` [Compound 11, 8-{4-[2-(6-methoxy-1-benzofuran-3-yl)ethyl]-1-piperazinyl}-6-chloro-quinoline], the Ki [1] was 540 nM.
